Test system: NCI-H1417 complex spheroids, growth % test/control
Assay: Anticancer human tumor NCI-H1417 cell line growth inhibition [Asc];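 also: spheroids exposed to compounds for 7 days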;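 as to viability, T/C: 100% = DMSO vehicle control wells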
Settings: for IC50: curve of first compound; for viability, T/C: stronger effect = lower value
Experimental: Multicellular complex tumor spheroid response to apoptosis pathway targeting inhibitors Alrizomadlin, Pelcitoclax, and Dasminapant in combination with a variety of drugs and investigational agents in selected tumor cell lines
The MDM2 inhibitor alrizomadlin, the Bcl-2/Bcl-xL inhibitor pelcitoclax, and the IAPs inhibitor dasminapant were evaluated both individually and in combination with standard of care and investigational anticancer small molecules within a complex spheroid model of solid tumors. . Complex spheroids include a stromal component modeled by human endothelial cells (HUVEC) and fibroblasts modeled by human mesenchymal stem cells (MSCs). The concentration ranges selected for each drug and investigational agent were based upon clinically achievable concentrations if the clinical Cmax of the agent was known.
Compounds. The drugs and investigational agents: alrizomadlin (APG-115; NSC831270), pelcitoclax (APG-1252; NSC835773), dasminapant (APG-1387;NSC834197), TAK-243 (NSC785004), copanlisib (NSC809693), olaparib (NSC753686), talazoparib (NSC767125), cobimetinib (NSC 768068), eltanexor (KPT-8602, NSC 794443), abemaciclib (NSC 768073), sotorasib (NSC818433), adagrasib (NSC 831453), MRTX-1133 (NSC 836407), Iadademestat (ORY1001, NSC 806812), and RMC-4630 (NSC839698), were obtained from the NCI Developmental Therapeutics Program Chemical Repository. The FDA-approved anticancer drug set is available from the Developmental Therapeutics Program at https://dtp.cancer.gov/organization/dscb/obtaining/available plates.htm. […] The stock solutions were prepared in dimethyl sulfoxide (DMSO, Sigma-Aldrich, St. Louis, MO, cat. D2650) at 800-fold the tested concentration and stored at -70 degrees C prior to their use. All drugs and investigational agents were tested over a range starting from a high concentration at or near the clinical Cmax and decreasing in half-log increments. If the clinical Cmax for an agent had not been determined, the highest concentration tested was 10 microM.
The patient-derived cancer (PDC) cell lines include five colon adenocarcinomas: 186277-243-T-J2-PDC, 616215-338-R-J1-PDC, 439559-082-T-J2-PDC, 463943-066-T-J2-PDC, and 519858-162-T-J1-PDC; three pancreatic carcinomas: 323965-272-R-J2-PDC, 521955-158-R6-J3-PDC, and 521955-158-R2-J5-PDC; two uterine sarcomas: 327498-152-R-J2-PDC and 993429-296-R-J1-PDC; two rhabdomyosarcomas: 755483-174-R-J1-PDC and 772245-204-R-J1-PDC; two soft tissue sarcomas: 126254-015-R-J1-PDC and 494315-158-R-J1-PDC; two malignant fibrous histiocytomas: 317291-083-R-J1-PDC and 596521-263-R-J1-PDC; two breast carcinomas: 171881-019-R-J1-PDC and 885512-296-R-J2-PDC; and one ovarian carcinoma: 6556581-035-R-J-PDC were obtained from the NCI PDMR, (https://pdmr.cancer.gov). The established cell lines HSSY-2 synovial sarcoma (RRID:CVCL 8719), SYO-1 synovial sarcoma (RRID:CVCL_7146), MPNST malignant peripheral neural sheath tumor were obtained from the Sloan Kettering Institute. The following established cell lines were purchased from the American Type Culture Collection (ATCC, Manassas, VA), Sor the received from the NCI repository:, PANC-1 pancreatic carcinoma (CRL-1469, RRID:CVCL_0480), OVCAR-5 ovarian carcinoma (RRID:CVCL_1628), OVCAR-8 ovarian carcinoma (RRID:CVCL_1629), , MCF-7 breast carcinoma (CRL-12584, RRID:CVCL_0031), MDA-MB-231 breast carcinoma (CRL-12532, RRID:CVCL_0062), NCI-H1876 small cell lung carcinoma (CRL-5902, RRID:CVCL_1503), NCI-H510A small cell lung carcinoma (HTB-184, RRID:CVCL_1565), NCI-H1417 (CRL-5869, RRID:CVCL_1469), and NCI-H196 small cell lung carcinoma (CRL-5823, RRID:CVCL_1509). Dr. Peter Houghton (Greehey Children's Cancer Research Institute, University of Texas Health Science Center, San Antonio, TX) provided Rh-18 rhabdomyosarcoma (RRID:CVCL_1659). Pooled donor human umbilical vein endothelial cells (HUVEC, Lonza, cat. CC-2519) and human mesenchymal stem cells (hMSC, Lonza, cat. PT-2501) were purchased from Lonza (Walkersville, MD).
Cell Culture. […]

Molecule `Cn1ncnc1[C@H]1c2n[nH]c(=O)c3cc(F)cc(c23)N[C@@H]1c1ccc(F)cc1` + CNC(C)C(=O)NC1CN(S(=O)(=O)c2cccc(S(=O)(=O)N3CCC4CCC(C(=O)NC(c5ccccc5)c5ccccc5)N4C(=O)C(NC(=O)C(C)NC)C3)c2)CCC2CCC(C(=O)NC(c3ccccc3)c3ccccc3)N2C1=O has an IC50 (second compound 0.01 µM) of over 100 nM, an IC50 (second compound 0.0316 µM) of over 100 nM and an IC50 (second compound 0.1 µM) of over 100 nM. It also gave an IC50 (second compound 0.316 µM) of over 100 nM, an IC50 (second compound 1 µM) of over 100 nM and a viability, T/C (second compound 0.01 µM, first compound 0.000316 µM) of 110%. For the same molecule, the viability, T/C (second compound 0.01 µM, first compound 0.001 µM) was 115%, the viability, T/C (second compound 0.01 µM, first compound 0.00316 µM) was 96.8% and the viability, T/C (second compound 0.01 µM, first compound 0.01 µM) was 81.1%. For the same molecule, the viability, T/C (second compound 0.01 µM, first compound 0.0316 µM) was 69.4%, the viability, T/C (second compound 0.01 µM, first compound 0.1 µM) was 85.3% and the viability, T/C (second compound 0.0316 µM, first compound 0.000316 µM) was 104%. The viability, T/C (second compound 0.0316 µM, first compound 0.001 µM) was 98.8%, the viability, T/C (second compound 0.0316 µM, first compound 0.00316 µM) was 94% and the viability, T/C (second compound 0.0316 µM, first compound 0.01 µM) was 87.4%. It also gave a viability, T/C (second compound 0.0316 µM, first compound 0.0316 µM) of 69%, a viability, T/C (second compound 0.0316 µM, first compound 0.1 µM) of 80.2% and a viability, T/C (second compound 0.1 µM, first compound 0.000316 µM) of 95.8%. For the same molecule, the viability, T/C (second compound 0.1 µM, first compound 0.001 µM) was 93%, the viability, T/C (second compound 0.1 µM, first compound 0.00316 µM) was 90.9% and the viability, T/C (second compound 0.1 µM, first compound 0.01 µM) was 78.3%. For the same molecule, the viability, T/C (second compound 0.1 µM, first compound 0.0316 µM) was 66.9%, the viability, T/C (second compound 0.1 µM, first compound 0.1 µM) was 74% and the viability, T/C (second compound 0.316 µM, first compound 0.000316 µM) was 99.6%. The viability, T/C (second compound 0.316 µM, first compound 0.001 µM) was 110%, the viability, T/C (second compound 0.316 µM, first compound 0.00316 µM) was 102% and the viability, T/C (second compound 0.316 µM, first compound 0.01 µM) was 78.5%. The viability, T/C (second compound 0.316 µM, first compound 0.0316 µM) was 64.3%, the viability, T/C (second compound 0.316 µM, first compound 0.1 µM) was 70.1% and the viability, T/C (second compound 1 µM, first compound 0.000316 µM) was 98%. For the same molecule, the viability, T/C (second compound 1 µM, first compound 0.001 µM) was 112%, the viability, T/C (second compound 1 µM, first compound 0.00316 µM) was 95.4% and the viability, T/C (second compound 1 µM, first compound 0.01 µM) was 81.3%. For the same molecule, the viability, T/C (second compound 1 µM, first compound 0.0316 µM) was 80% and the viability, T/C (second compound 1 µM, first compound 0.1 µM) was 84.4%.

`NC(=O)C(=Cn1cnc(-c2cc(C(F)(F)F)cc(C(F)(F)F)c2)n1)c1cncnc1` + CCN1C(C(=O)NC23CCC(C(=O)O)(CC2)CC3)C(c2cccc(Cl)c2F)C2(C(=O)Nc3cc(Cl)ccc32)C12CCCCC2 was tested, and the IC50 (second compound 0.03 µM) was 128 nM, the IC50 (second compound 0.0949 µM) was 104 nM and the IC50 (second compound 0.3 µM) was 100 nM. The IC50 (second compound 0.949 µM) was 102 nM, the IC50 (second compound 3 µM) was 59.1 nM and the viability, T/C (second compound 0.03 µM, first compound 0.000949 µM) was 95.9%. For the same molecule, the viability, T/C (second compound 0.03 µM, first compound 0.003 µM) was 112%, the viability, T/C (second compound 0.03 µM, first compound 0.00949 µM) was 93.5% and the viability, T/C (second compound 0.03 µM, first compound 0.03 µM) was 96%. It also gave a viability, T/C (second compound 0.03 µM, first compound 0.0949 µM) of 59.7%, a viability, T/C (second compound 0.03 µM, first compound 0.3 µM) of 21.9% and a viability, T/C (second compound 0.0949 µM, first compound 0.000949 µM) of 96.7%. The viability, T/C (second compound 0.0949 µM, first compound 0.003 µM) was 101%, the viability, T/C (second compound 0.0949 µM, first compound 0.00949 µM) was 97.2% and the viability, T/C (second compound 0.0949 µM, first compound 0.03 µM) was 87%. It also gave a viability, T/C (second compound 0.0949 µM, first compound 0.0949 µM) of 52.9%, a viability, T/C (second compound 0.0949 µM, first compound 0.3 µM) of 18.9% and a viability, T/C (second compound 0.3 µM, first compound 0.000949 µM) of 97.7%. The viability, T/C (second compound 0.3 µM, first compound 0.003 µM) was 97%, the viability, T/C (second compound 0.3 µM, first compound 0.00949 µM) was 96.2% and the viability, T/C (second compound 0.3 µM, first compound 0.03 µM) was 87.3%. It also gave a viability, T/C (second compound 0.3 µM, first compound 0.0949 µM) of 51.6%, a viability, T/C (second compound 0.3 µM, first compound 0.3 µM) of 19.1% and a viability, T/C (second compound 0.949 µM, first compound 0.000949 µM) of 93.6%. The viability, T/C (second compound 0.949 µM, first compound 0.003 µM) was 96.3%, the viability, T/C (second compound 0.949 µM, first compound 0.00949 µM) was 85.1% and the viability, T/C (second compound 0.949 µM, first compound 0.03 µM) was 73.9%. For the same molecule, the viability, T/C (second compound 0.949 µM, first compound 0.0949 µM) was 52.6%, the viability, T/C (second compound 0.949 µM, first compound 0.3 µM) was 18.8% and the viability, T/C (second compound 3 µM, first compound 0.000949 µM) was 97.5%. It also gave a viability, T/C (second compound 3 µM, first compound 0.003 µM) of 98.8%, a viability, T/C (second compound 3 µM, first compound 0.00949 µM) of 81.3% and a viability, T/C (second compound 3 µM, first compound 0.03 µM) of 67.9%. It also gave a viability, T/C (second compound 3 µM, first compound 0.0949 µM) of 38.1% and a viability, T/C (second compound 3 µM, first compound 0.3 µM) of 16.3%.

From PubChem BioAssay AID1963440 (Molecular Pharmacology Branch, DTP, NCI, 2024)
